Test results: US7371776B2, “Methods and compositions for treating cancer” (Mars, Incorporated, priority 2004, dated 2008)

Experiments:
Type in all cases: cell-based, human
[1] = system: PKC-θ at Ser 643/676; test: LPS multi-well plate phosphorylation screen in MDA MB-231 cells; conditions: 100 μg/mL, 72 hrs
From the text: Layered Protein Scanning (LPS) is a method for screening liquid protein samples in a high throughput manner using multi-well plates [Englert, C. R. et al., Cancer Res., 60: 1526-1530, 2000], and conducted by 20/20 Gene Systems, Inc., (Rockville, Md.). In short, cells are lysed and protein extract loaded into the wells of vacuum manifold and transferred through a stack of membranes. From each set of samples, up to five dot blot membranes are generated.
MDA MB-231 human breast cancer cells were treated, with or without 100 μg/mL pentamer, for 48 and 72 hours. Cells were lysed in LPS/MWP lysis buffer (20/20 Gene Systems, Inc.). Protein concentration was determined using BCA Protein Assay Kit (Pierce, Rockford, Ill.). Ten and 20 μg of each protein sample was loaded in duplicate onto Bio-Dot Microfiltration Apparatus (BioRad, Philadelphia, Pa.) and transferred through a 5-membrane stack as recommended by the manufacturer (20/20 Gene Systems). After the transfer, all of the membranes were biotinylated in 1 mg/mL EZ-Link Sulfo-NHS-Biotin solution in 1×PBS for 10 minutes at room temperature (Pierce).
Membranes were incubated overnight at 4° C. with the antibodies shown in Table 1 (1:500 or 1:1000 dilution). The following day, membranes were washed in Tris-buffered saline with Tween 20 (0.1%) (TBST buffer) and incubated for 60 minutes at room temperature in a mixture of FluoroLink Cy 5-labeled Streptavidin (1:500, Amersham) and Fluorescein-labeled secondary anti-mouse or anti-rabbit antibody (1:2,000, Molecular Probes, Eugene, Oreg.), followed by washes in TBST. Membranes were dried and scanned on a Typhoon scanner (Amersham), and obtained images were analyzed with InageQuant software (Amersham). Data were plotted in Excel and statistically analyzed in JMP (SAS Institute, Inc., Cary, N.C.). Hierarchical clustering analysis was performed to evaluate segregation of samples into control and treated groups.

[2] = system: 184B5 cells; test: Crystal violet cellular proliferation assay; conditions: 100 μg/mL
Procedure: The 184B5 line is an immortalized, non-tumorogenic cell line derived from primary cultures of HMECs immortalized with benzo(a)pyrene (provided by Dr. M. R. Stampfer) and was maintained in Clonetics mammary epithelial cells medium (MEGM).
(§1) One×10^3 cells per well were seeded in 96 well dishes (Coming Costar, Cambridge, Mass.). Primary cultures of HMECs, A1N4 and 184B5 cells were evaluated at two different cell densities (seeded at 1×10^3 and 2×10^3 per well). After 24 hours of cell attachment, cells in triplicate wells were treated with pentamer at a concentration of 100 μg/mL. The cells on the same plate were treated with corresponding controls: (i) media containing DMSO, and (ii) media with no additions.
Cells were treated for 1, 2, 3, 6, 8 and 10 days, but in some cases, the samples were collected at days 2, 3, 4, 7 and 10 post-treatment. Each treatment was conducted in triplicate. Samples were collected at each time point as follows: media was removed and 50 μL of crystal violet solution (0.1% of crystal violet in 0.1 M citric acid solution) was added to each well at room temperature and plates were incubated for 15 minutes, followed by washing with deionized water. […] The optical density (OD) of samples was read at 550 nm on an Ultramark Microplate Imagining System (BioRad, Philadelphia, Pa.). […] Statistical significance was determined using the t test analysis.

[3] = system: MDA MB-468 cells; test: Mitochondrial membrane potential depolarization (ApoAlert, flow cytometry)
Procedure: (§2) Mitochondrial membrane potential was determined using ApoAlert™ Mitochondrial Membrane Sensor Kit (Clonetech Inc., Palo Alto, Calif.). The MDA MB-231, MCF-7, MDA MB-468, MDA MB-436, SKBR-3, MCF-10A, MCF-10A-c-Myc and AIN4 cells were grown, in appropriate media, to 60-70% confluence in 25 cm^2 dishes. The following day, the complete media was replaced with complete media containing (i) pentamer (100 μg/mL, or in some cases with 25 μg/mL), (ii) media with DMSO, or (iii) media only. Initially, cells were grown in the presence of pentamer for 1, 2, 3, 6, 12 and 24 hrs but only 1, 2 and 6 hrs treatments were selected for subsequent studies. All floating and adherent cells were combined, and then the cells were aliquoted into flow cytometry tubes. Approximately, 1×10^6 cells per tube were analyzed, according to the manufacturer's instructions. Samples were analyzed at the Lombardi Comprehensive Cancer Center Core Flow Cytometry Shared Resource Facility.

[4] = system: SKBR-3 cells; test: as above
Procedure: as §2

[5] = system: AIN4 cells; test: as above
Procedure: as §2

[6] = system: MCF-7 cells; test: as above; conditions: several attempts, different passages
Procedure: as §2

[7] = system: MDA MB-436 cells; test: as above
Procedure: as §2

[8] = system: MCF-10A cells; test: as above
Procedure: as §2

[9] = system: MDA MB-231 cells; test: as above
Procedure: as §2

[10] = system: MCF-10A-ErbB2/Ras cells; test: Crystal violet cellular proliferation assay; conditions: 100 μg/mL
Procedure: (§3) The MCF-10A cell line (spontaneously immortalized, non-tumorigenic human mammary epithelial cell line with non-mutated p53) was maintained in F-12/DMEM medium supplemented with 5% horse serum (Gibco), 20 ng/mL EGF (Upstate Biotechnology Incorporated, Lake Placid, N.Y.), 10 μg/mL insulin (Biofluids, Rockville, Md.), and 500 ng/mL hydrocortisone. The same media were used for MCF-10A-ErbB2/Ras cells (Ciardiello, F. et al., Mol Carcinog., 6: 43-52. 1992) and MCF-10A-c-Myc cells (Sheen, J-H. et al., Mol. Cell. Biol., 22: 1819-1833, 2002).
as §1
(§4) Cells were treated for 1, 2, 3, 6, 8 and 10 days, but in some cases, the samples were collected at days 2, 3, 4, 7 and 10 post-treatment. Each treatment was conducted in triplicate. Samples were collected at each time point as follows: media was removed and 50 μL of crystal violet solution (0.1% of crystal violet in 0.1 M citric acid solution) was added to each well at room temperature and plates were incubated for 15 minutes, followed by washing with deionized water. Plates were dried at room temperature overnight. The following day, plates were destained by adding 100 μL of 0.1 M sodium citrate solution into each well. Plates were incubated for one hour. The optical density (OD) of samples was read at 550 nm on an Ultramark Microplate Imagining System (BioRad, Philadelphia, Pa.). The experiment was repeated twice resulting in an average of nine measurements per sample. Statistical significance was determined using the t test analysis.

[11] = system: MCF-10A-c-Myc cells; test: Crystal violet cellular proliferation assay; conditions: 100 μg/mL
Procedure: as §3, §1, §4

[12] = system: MCF-10A cells; test: Crystal violet cellular proliferation assay; conditions: 100 μg/mL
Procedure: as §3, §1, §4

[13] = pentamer-treated, average of three experiments

SMILES: Oc1cc(O)c2c(c1)O[C@H](c1ccc(O)c(O)c1)[C@H](O)[C@H]2c1c(O)cc(O)c2c1O[C@H](c1ccc(O)c(O)c1)[C@H](O)[C@H]2c1c(O)cc(O)c2c1O[C@H](c1ccc(O)c(O)c1)[C@H](O)[C@H]2c1c(O)cc(O)c2c1O[C@H](c1ccc(O)c(O)c1)[C@H](O)[C@H]2c1c(O)cc(O)c2c1O[C@H](c1ccc(O)c(O)c1)[C@H](O)C2 [pentamer, pentameric procyanidin]
- phosphorylation of PKC-θ at Ser 643/676 decreased [1]: 49%
- day post-treatment at which significant sensitivity to pentamer was exhibited [2]: 10 days
- growth inhibited, in comparison to DMSO-treated controls [2]: 2.8 fold
- MMP depolarization, Fold Increase over DMSO [3]: 5
- MMP depolarization (%) [3, 13]: 60%
- MMP depolarization, Fold Increase over DMSO [4]: 2.5
- MMP depolarization (%) [4, 13]: 25%
- MMP depolarization, Fold Increase over DMSO [5]: 3.2
- MMP depolarization (%) [5, 13]: 20%
- depolarization of the mitochondrial membrane [6]: depolarization could not be demonstrated
- MMP depolarization, Fold Increase over DMSO [7]: 5.7
- MMP depolarization (%) [7, 13]: 50%
- MMP depolarization, Fold Increase over DMSO [8]: 2
- MMP depolarization (%) [8, 13]: 20%
- MMP depolarization, Fold Increase over DMSO [9]: 14.5
- depolarization of mitochondrial membrane, time course ([9]; 100 μg/mL, 1, 2 and 6 hours): time-dependent depolarization
- depolarization of mitochondrial membrane, dose response ([9]; 25 and 100 μg/mL): dose-dependent response
- MMP depolarization (%) [9, 13]: 58%
- pentamer-induced growth inhibition [10]: equally resistant
- pentamer-induced growth inhibition [11]: equally resistant
- pentamer-induced growth inhibition [12]: equally resistant
